# In patent US9572820B2, “Methods of treating autophagy-associated disorders and related pharmaceutical compositions, diagnostics, screening techniques and kits” (priority 2011, dated 2017):
# Non-standard residues stand in square brackets, D forms with d. Residues, ends and D or L forms follow the SMILES beside them. Nle = CCCC[C@H](N)C(=O)O
# B1: IL-1α: cytokine used at 20 ng/ml to promote Th17 differentiation (protein, UniProt P01583 113-271, looked up)
# Interleukin-1 alpha: SAPFSFLSNVKYNFMRIIKYEFILNDALNQSIIRANDQYLTAAALHNLDEAVKFDMGAYKSSKDDAKITVILRISKTQLYVTAQDEDQPVLLKEMPEIPKTITGSETNLLFFWETHGTKNYFTSVAHPNLFIATKQDYWVCLAGGPPSITDFQILENQA
# Tested on: naïve CD4 T cells
# Test: In vitro Th17 polarization of naïve CD4 T cells (intracellular IL-17A, flow cytometry)
# Format: cell-based, mice
# Conditions: with TGF-β 5 ng/ml and IL-6 20 ng/ml; IL-1α or IL-1β 20 ng/ml, day 4
row,Molecule,intracellular levels of IL-17A
1,B1,elevated

# Tested on: LC3-GFP/RFP HeLa cells
# Test: High-content imaging screen of LC3-GFP/RFP puncta (Cellomics ArrayScan)
# Format: cell-based
# Conditions: LC3-GFP/RFP puncta per cell, 4 hours incubation; hit = 3 standard deviations above or below mean of negative control wells
# Protocol: FIG. 1X6. Use of Cellomics ArrayScan to detect induction of authophagy. […] Wells were scanned for number, area, or intensity of GFP+ or RFP+ puncta per cell using a Cellomics ArrayScan. Negative control (DMF-treated) wells were also measured. Each dot represents the data from a single well.
# FIG. 2X6. Chemical library screen for modulation of autophagy. LC3-RFP/GFP HeLa cells were incubated with compounds from the chemical library for 4 hours, then fixed in 0.1% PFA. Wells were scanned using a Cellomics ArrayScan. […] Each dot represents the data from a single well.
# FIG. 4X6. […] Wells were scanned using a Cellomics ArrayScan. […] Each dot represents the data from four separate wells, and error bars are standard deviation.
# LC3 is a widely-used marker for autophagic vacuoles. HeLa cells stably transduced with LC3-GFP/RFP tandem construct generate fluorescent autophagic puncta, which are either green/yellow (early autophagosomes) or red (late autophagosomes fused with lysosomes, which degrades the GFP). By quantitating the number or total area of fluorescent puncta per cell, we can detect alterations in autophagic flux and regulation. […]
# Using the above system, we performed two separate screens on a chemical library. This library contains 1,200 FDA-approved compounds, and represents wide functional and chemical diversity. This library spans four 384-well plates, with 64 wells on each plate with DMSO only as negative controls. […] A hit was defined as 3 standard deviations above or below the mean of the negative control wells on a given plate.
row,Molecule,modulation of autophagy (agonist/inducer or antagonist/inhibitor)
1,CC[N+](C)(CC)CCC[n+]1c(-c2ccccc2)c2cc(N)ccc2c2ccc(N)cc21.[I-].[I-] [propidium iodide],agonists or inducers of autophagy
2,CN1CCCC(CC2c3ccccc3Sc3ccccc32)C1 (stereo not drawn) [metixene],agonists or inducers of autophagy
3,O=C(Nc1ccccc1)OCC(CN1CCCCC1)OC(=O)Nc1ccccc1 (stereo not drawn) [diperodon],agonists or inducers of autophagy
4,CC(=O)[O-].[Hg+][c]1ccccc1 [phenylmercuric acetate],antagonists or inhibitors of autophagy
5,COC(=O)Nc1nc2cc(C(=O)c3ccc(F)cc3)ccc2[nH]1 [flubendazole],agonists or inducers of autophagy
6,CCCCc1cc2ccccc2c(OCCN(C)C)n1 [dimethisoquin],agonists or inducers of autophagy
7,CC(C)COCC(CN(Cc1ccccc1)c1ccccc1)N1CCCC1 (stereo not drawn) [bepridil],agonists or inducers of autophagy
8,CN(Cc1cc(Br)cc(Br)c1N)C1CCCCC1 [bromhexine],agonists or inducers of autophagy
9,CNCC(O)c1ccc(OC(=O)C(C)(C)C)c(OC(=O)C(C)(C)C)c1 (stereo not drawn) [dipivefrin],agonists or inducers of autophagy
10,"CCN(CC)CCOc1ccc(C(=C(Cl)c2ccccc2)c2ccccc2)cc1.O=C(O)CC(O)(CC(=O)O)C(=O)O [clomiphene citrate (Z,E)]",agonists or inducers of autophagy
11,CNCCC=C1c2ccccc2C=Cc2ccccc21 [norcyclobenzaprine],agonists or inducers of autophagy
12,Oc1c(Cl)cc(Cl)c(Cl)c1Cc1c(O)c(Cl)cc(Cl)c1Cl [hexachlorophene],agonists or inducers of autophagy
13,N#Cc1c(Cl)c(Cl)c(Cl)c(C#N)c1Cl [tetrachlorisophthalonitrile],antagonists or inhibitors of autophagy
14,COCCCC/C(=N\OCCN)c1ccc(C(F)(F)F)cc1 [fluvoxamine],agonists or inducers of autophagy
15,CC12CC3CC(C)(C1)CC(N)(C3)C2 [memantine],agonists or inducers of autophagy
16,CNCCC=C1c2ccccc2CCc2ccccc21 [nortriptyline],agonists or inducers of autophagy

# Same assay, conditions: from pp242 dose response
row,Molecule,suboptimal dose that did not induce autophagy [µM]
1,CC(C)n1nc(-c2cc3cc(O)ccc3[nH]2)c2c(N)ncnc21 [pp242],~0.06

# Tested on: LC3-GFP/RFP HeLa cells
# Test: Chemical library screen in the presence of a suboptimal dose of pp242
# Format: cell-based
# Conditions: suboptimal pp242 (~0.06 uM) plus library compound
row,Molecule,modulation of autophagy in combination with mTOR inhibitor (suboptimal pp242)
1,O=C1NCCN1CCN1CCC(c2cn(-c3ccc(F)cc3)c3ccc(Cl)cc23)CC1 [sertindole],effective as autophagy modulators in combination
2,CCCCC(CC)CN1CN(CC(CC)CCCC)CC(C)(N)C1 (stereo not drawn) [hexetidine],effective as autophagy modulators in combination
3,C[C@H]1O[C@@H](O[C@H]2[C@@H](O)C[C@H](O[C@H]3[C@@H](O)C[C@H](O[C@H]4CC[C@@]5(C)[C@H](CC[C@@H]6[C@@H]5C[C@@H](O)[C@]5(C)[C@@H](C7=CC(=O)OC7)CC[C@]65O)C4)O[C@@H]3C)O[C@@H]2C)C[C@H](O)[C@@H]1O [digoxin],effective as autophagy modulators in combination
4,Cc1cccc(C)c1N=C1NCCCS1 [xylazine],effective as autophagy modulators in combination

# Tested on: pro-IL-1β
# Test: Expression of pro-IL-1β in BMMs
# Format: cell-based, murine
# Conditions: cells treated with bafilomycin A1 or CA-074 Me
# Protocol: To induce pro-IL-1β expression, cells were pretreated overnight with 100 ng/ml LPS (Sigma). Inflammasome was induced with […] nigericin (Sigma) for 1 h or with […] Alum (Thermoscientific) for 1 h or with […] silica crystals (MIN-U-SIL-15, US Silica) for 1 h or with […] Amyloid-b peptide (Ab; American Peptide Company) fibrils prepared as described (Moore et al, 2002). […] Starvation and other treatments (except for macrophage priming with LPS done in advance) were carried out concurrently (i.e., initiated at the same time).
# For all conditions, cell-free supernatants were assayed by immunoblotting after TCA precipitation for mouse IL-1β p17 (R&D), caspase-1 p10 (Santa Cruz Biotechnology), HMGB1 (Abcam) and Cathepsin B (R&D) or by ELISA for mouse IL-1β (R&D), IL-18 (MBL), and HMGB1 (IBL). Immunofluorescence confocal microscopy was carried out using a Zeiss LSM 510 Meta microscope (laser wavelengths 488, 543, and 633 nm). Antibodies against endogenous proteins IL-1β (Abcam), Sec6 (Shu C Hsu, Rutgers University, NJ, USA), Cathepsin B (R&D), Rab8a (Abcam), GORASP1 (Novus), GORASP2 (ProteinTech Group), GM130 (BD), LC3 (MBL) and GFP (Abcam; for BMMs from GFP-LC3 knock-in transgenic mice) were used for indirect immunofluorescence analysis. […]
row,Molecule,expression of pro-IL-1β
1,CCCNC(=O)[C@H]1O[C@@H]1C(=O)N[C@H](C(=O)N1CCC[C@H]1C(=O)OC)[C@@H](C)CC [CA-074 Me],No differences

# Tested on: IL-1α
# Test: IL-1α release (ELISA) from LPS+IFN-γ stimulated BMM
# Format: cell-based, murine
# Conditions: Atg5fl/fl LysM-Cre+ BMM, ALLN 100 μM
row,Molecule,excess IL-1α production
1,CCCC[C@@H](C=O)NC(=O)[C@H](CC(C)C)NC(=O)[C@H](CC(C)C)NC(C)=O [ALLN] (Ac-Leu-Leu-[Nle]-aldehyde),completely abrogated

# Same assay, conditions: Atg5fl/fl LysM-Cre− BMM, LPS+IFN-γ, 12 h; 50 μg/ml rapamycin, 10 mM 3-MA or 100 nM Bafilomycin A1
row,Molecule,IL-1α secreted
1,Cn1cnc(N)c2ncnc1-2 [3-methyladenine],significantly increased

# Tested on: IL-1β
# Test: IL-1β secretion from LPS-pretreated BMMs (ELISA)
# Format: cell-based, murine
# Conditions: pp242 in full medium, 1 h
# Protocol: FIG. 1X3. induction of autophagy enhances IL-1β secretion. (A) Atg5fl/fl Cre^− and Atg^5fl/fl Cre^+ bone marrow-derived macrophages (BMMs), pretreated overnight with 100 ng/ml LPS, were stimulated for 1 h with the inflammasome agonist nigericin ([…]) with (Starvation; EBSS) or without (Full; full medium) autophagic induction. Cell culture supernatants were assayed for murine IL-1β by ELISA. Data represent mean values±s.d. (nX3); *Po0.05. (B) LPS-pretreated Atg5fl/fl Cre^− and Atg^5fl/fl Cre^+ BMMs were stimulated with […] nigericin for 1 h in OptiMEM and the release of active caspase-1 and IL-1β was determined by immunoblotting. (C) As in (A), assayed for IL-18. Data represent mean values±s.d. (nX3); *Po0.05. (D) LPS-pretreated BMMs were exposed to alum ([…]) for 1 h with or without autophagic induction by starvation. Secreted IL-1β was measured as in (A). Data represent mean values±s.d. (nX3); *Po0.05. (E) LPS-pretreated BMMs were exposed to silica ([…]) for 1 h with or without autophagic induction by starvation. Secreted IL-1β was measured as in (A). Data represent mean values±s.d. (nX3); *Po0.05. (F) BMMs were transfected with scramble (Scr) control siRNA or siRNAs against ASC and NLRP3. After 48 h following transfection, cells were treated overnight with LPS and subjected to nigericin ([…]) and starvation for 1 h. Data represent mean values±s.d. (nX3); *Po0.05. (G) Immunoblot analysis of ASC and NLRP3 knockdowns. (H) BMMs were transfected with scramble
# FIG. 2X3 Autophagic pathway progression promotes secretion of inflammasome substrates. (A, B) LPS-pretreated BMMs were treated with […] nigericin (Nig) and 100 nM bafilomycin A1 (Baf) with (Starvation) or without (Full) autophagic induction for 1 h and secreted IL-1β (A) and IL-18 (B) were measured. Data represent mean values+s.d. (nX3); *Po0.05. (C) LPS-pretreated BMMs were treated with […] of silica and 100 nM bafilomycin A1 (Baf) with (Starvation) or without (Full) autophagic induction for 1 h and secreted IL-1β were measured. Data represent mean values±s.d. (nX3); *Po0.05. (D) Colocalization of cathepsin B with the basal autophagic machinery factor LC3 and IL-1b. Fluorescence; LC3 (green, Alexa488), IL-1β (red, Alexa568), and cathepsin B (blue, Alexa633). BMMs from GFP-LC3 knockin mice were treated with LPS and then analysed for immunofluorescence. (E) Colocalization line tracing analysis from images in (D). (F) LPS-pretreated BMMs were treated with […] nigericin and cathepsin B inhibitor CA-074 Me […] , with (Starvation) or without (Full) autophagic induction, for 1 h and secreted IL-1β was measured. […] (G) LPS-pretreated Atg^5fl/fl Cr^+ and Atg^5fl/fl Cre^− BMMs were stimulated with […] nigericin for 1 h in OptiMEM and release of cathepsin B was determined by immunoblotting. […]
row,Molecule,secretion of IL-1β
1,CC(C)n1nc(-c2cc3cc(O)ccc3[nH]2)c2c(N)ncnc21 [pp242],increased secretion of IL-1β

# Same assay, conditions: starvation, nigericin, 1 h
row,Molecule,IL-1β secretion
1,CCCNC(=O)[C@H]1O[C@@H]1C(=O)N[C@H](C(=O)N1CCC[C@H]1C(=O)OC)[C@@H](C)CC [CA-074 Me],strongly inhibited IL-1β secretion
